# Data taken from paper PMC5736709, “Unravelling the specificity and mechanism of sialic acid recognition by the gut symbiont Ruminococcus gnavus” (Nature Communications, 2017).
# Entries after “also recorded” stand apart in the source; their conditions may differ.
# How the values were obtained:
# RgCBM40 E126A = target: T1, RgCBM40 E126A (Mediterraneibacter gnavus (Ruminococcus gnavus), UniProt A7B557, E126A); assay: ITC of sialoglycans binding to RgCBM40 mutant E126A; set-up: species or system Ruminococcus gnavus ATCC 29149; conditions: for Kd: ITC
# T1 sequence (A7B557 50-237 E126A): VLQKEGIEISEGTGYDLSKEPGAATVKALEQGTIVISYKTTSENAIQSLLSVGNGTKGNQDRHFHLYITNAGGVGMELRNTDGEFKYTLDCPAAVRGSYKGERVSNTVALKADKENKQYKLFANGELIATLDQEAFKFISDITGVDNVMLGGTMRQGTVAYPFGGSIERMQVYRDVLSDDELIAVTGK
# Method: (§1) Site directed mutagenesis of RgGH33 to introduce the D282A mutation in the active site was carried out using the QuikChange kit, following the manufacturer’s instructions, Agilent (Santa Clara, CA, USA). Site-directed mutants of RgCBM40; I95A, Y116A, E126A, R128A, R204A and double mutant R128A/R204A, were obtained from NZyTech (Lisbon, Portugal). The primers are listed in Supplementary Table 4. The integrity of the RgGH33 and RgCBM40 mutants was checked by circular dichroism (CD).
# (§2) Isothermal titration calorimetry (ITC) experiments were performed using the PEAQ-ITC system (Malvern, Malvern, UK) with a cell volume of 200 µl. Prior to titration protein samples were exhaustively dialysed into PBS. The ligand was dissolved in the dialysis buffer. The cell protein concentration was 115 µM (except for mutant I95A where it was 173 µM and the wild-type interaction with 6′SL where it was 230 µM) and the syringe ligand concentration was 10 mM (25 mM for Neu5Ac). Controls with titrant (sugar) injected into buffer only were subtracted from the data. Analysis was performed using Malvern software, using a single-binding site model. The stoichiometry of binding sites was set to 1.0 as this was evident from the crystal structure. Quantitative and most qualitative experiments were carried out in triplicate.
# RgCBM40 Y116A = target: T2, RgCBM40 Y116A (Mediterraneibacter gnavus (Ruminococcus gnavus), UniProt A7B557, Y116A); assay: ITC of sialoglycans binding to RgCBM40 mutant Y116A; set-up: species or system Ruminococcus gnavus ATCC 29149; conditions: for Kd: ITC
# T2 sequence (A7B557 50-237 Y116A): T1 sequence (A7B557 50-237 E126A)
# Method: as §1, §2
# RgCBM40 Y210A = target: T3, RgCBM40 Y210A (Mediterraneibacter gnavus (Ruminococcus gnavus), UniProt A7B557, Y210A); assay: ITC of sialoglycans binding to RgCBM40 mutant Y210A; set-up: species or system Ruminococcus gnavus ATCC 29149; conditions: for Kd: ITC
# T3 sequence (A7B557 50-237 Y210A): T1 sequence (A7B557 50-237 E126A)
# Method: as §2
# SpCBM40_NanC = target: SpCBM40_NanC; set-up: method as in PMID 26370075; conditions: isolated S. pneumoniae SpCBM40_NanC ref 37; cited from earlier work
# RgCBM40 R128A/R204A = target: T4, RgCBM40 R128A/R204A (Mediterraneibacter gnavus (Ruminococcus gnavus), UniProt A7B557, R128A/R204A); assay: ITC of sialoglycans binding to RgCBM40 double mutant R128A/R204A; set-up: species or system Ruminococcus gnavus ATCC 29149; conditions: for Kd: ITC
# T4 sequence (A7B557 50-237 R128A/R204A): T1 sequence (A7B557 50-237 E126A)
# Method: as §1, §2
# RgCBM40 I95A [1] = target: T5, RgCBM40 I95A (Mediterraneibacter gnavus (Ruminococcus gnavus), UniProt A7B557, I95A); assay: STD NMR of sialoglycans with RgCBM40 I95A mutant; format: binding, Ruminococcus gnavus ATCC 29149; conditions: 1 mM sialoglycan, 50 μM RgCBM40 I95A
# T5 sequence (A7B557 50-237 I95A): T1 sequence (A7B557 50-237 E126A)
# Method: ^1H and ^13C resonance assignment for all the sugars was performed on the bases of 1D ^1H, 2D DQF-COSY, TOCSY, HSQC and NOESY experiments run on the free ligands in unbuffered D2O, pH 7.0. For STD NMR experiments, all the samples consisted of 1 mM sialoglycans and 50 μM RgCBM40 (WT or I95A mutant) in D2O buffer solution of 10 mM Tris-d11 pH 7.8 and 100 mM NaCl (ligand: protein ratio 20:1). An STD pulse sequence that included 2.5 ms and 5 ms trim pulses and a 3 ms spoil gradient was used. Saturation was achieved applying a train of 50 ms Gaussian pulses (0.40 mW) on the f2 channel, at 0.60 p.p.m. (on-resonance experiments) and 40 p.p.m. (off-resonance experiments). The broad protein signals were removed using a 40 ms spinlock (T1ρ) filter. All the experiments were recorded at ^1H frequency of 800.23 MHz on a Bruker Avance III spectrometer equipped with a 5 mm probe TXI 800 MHz H-C/N-D-05 Z BTO, at 288 K. For all the sialoglycans in the presence of RgCBM40, an STD experiment with a saturation time of 2 s and a relaxation delay of 5 s was performed, as a first test for binding. For the confirmed binders, the STD NMR experiments were carried out at different saturation times (0.5, 1, 2, 3, 4 and 5 s) with 1 K scans and relaxation delay of 5 s, in order to obtain the binding epitope mapping. […]
# RgCBM40 I95A [2] = target: T5, RgCBM40 I95A; assay: ITC of sialoglycans binding to RgCBM40 mutant I95A; set-up: species or system Ruminococcus gnavus ATCC 29149; conditions: for Kd: 173 µM protein, syringe 10 mM sugar (25 mM for Neu5Ac), * = estimate only
# Method: as §1, §2
SMILES,Binding by ITC (in words) (RgCBM40 E126A),Kd (RgCBM40 E126A) [mM],Binding by ITC (in words) (RgCBM40 Y116A),Kd (RgCBM40 Y116A) [mM],Binding by ITC (in words) (RgCBM40 Y210A),Kd (RgCBM40 Y210A) [mM],Kd (SpCBM40_NanC) [mM],Binding by ITC (in words) (RgCBM40 R128A/R204A),Kd (RgCBM40 R128A/R204A) [mM],Binding to I95A by STD-NMR (RgCBM40 I95A [1]),-T∆S (RgCBM40 I95A [2]) [kcal/mol],∆G (RgCBM40 I95A [2]) [kcal/mol],∆H (RgCBM40 I95A [2]) [kcal/mol],Kd (RgCBM40 I95A [2]) [mM]
"CC(=O)N[C@H]1[C@H]([C@H](O)[C@H](O)CO)O[C@@](OC[C@H]2O[C@@H](O[C@H]3[C@H](O)[C@@H](O)C(O)O[C@@H]3CO)[C@H](O)[C@@H](O)[C@H]2O)(C(=O)O)C[C@@H]1O (stereo partly drawn) [6′SL, α2,6-sialyllactose]",abolished,> 25,abolished,> 25,abolished,> 25,~1.6,abolished,> 25,confirmed,-0.12 ± 0.3,-3.91 ± 0.07,-3.79 ± 0.24,1.37
"CC(=O)N[C@H]1[C@H]([C@H](O)[C@H](O)CO)O[C@@](O[C@H]2[C@@H](O)[C@@H](CO)O[C@@H](O[C@H]3[C@H](O)[C@@H](O)C(O)O[C@@H]3CO)[C@@H]2O)(C(=O)O)C[C@@H]1O (stereo partly drawn) [3′SL, α2-3 sialyllactose]",abolished,> 25,abolished,> 25,abolished,> 25,~1.5,abolished; also recorded: loss of binding,> 25,confirmed,0.97 ± 0.47,-3.74 ± 0.04,-4.71 ± 0.43,1.82
